Source: patent US12419847B2, “Composition and method for attenuating neuroinflammation, amyloidopathy and tauopathy” (Trustees of Dartmouth College, priority 2020, dated 2025)
pIC50, pKi: −log10 of the molar value.

Key:
[1] = tested on: ACAT; experiment: ACAT enzyme activity in mouse tissue homogenates after IV injection of nanoparticles; type: in vivo; conditions: delivered IV in nanoparticles
Description: A1^−/− refers to Acat1^−/− mouse. ACAT activity was determined by using a mixed liposome assay. N=4 for WT mice age (2-3 months) and gender matched. N=1 for A1^−/− mouse. N.S., not significant; P<0.05*, P<0.01**, P<0.001***. Analysis by two-way ANOVA. The significance is relative to vehicle-treated group.
A1^−/− refers to Acat1^−/− mouse. Note, the major isoenzyme in mouse liver is ACAT2. ACAT activity was determined without or with perfusion as indicated. N=3-4 for WT mice age- and gender-matched. N=1 for A1^−/− mouse. N.S., not significant; P<0.05*, P<0.01**, P<0.001***. Two-way ANOVA. The significance is relative to vehicle-treated group.
Mice were perfused before brains were isolated. N=2-3 WT mice/group. N=1 A1^−/− mouse. Statistical analysis, 2-way ANOVA. *P<0.05; **P<0.01; ***P<0.001.
As a component of the above-referenced analysis, a portion of the mice were treated with perfusion (to remove blood contamination from tissues).

[2] = biological target: T1, ACAT1 (Homo sapiens (Human), UniProt P35610); experiment: human ACAT1 IC50 by mixed liposome assay
Description: In vitro Mixed Liposomal ACAT Activity Assay. […] Lysed cells were collected and aliquoted into pre-chilled tubes containing the liposomal mixture of taurocholate, phosphatidylcholine, and cholesterol. Tubes were vortexed and kept on ice for 5 minutes. Samples were then incubated in a 37° C. shaking water bath with ^3H-oleoyl CoA added for 10 minutes. The assay was stopped by adding CHCl3:MeOH (2:1). Lipids were extracted and analyzed by the same TLC method described herein.

[3] = tested on: IL-4Rα; experiment: IL-4Rα protein content in HMC3 cells (western blot); type: cell-based, human; conditions: for IL-4Rα protein content: human myelin debris-treated HMC3 cells, co-incubation
Description: . Exp. 130:56322) for 21 hours.
. […] Protein was isolated and analyzed by western blot analysis. Vinculin was the loading control. […]; **P<0.01.
Subsequently, myelin debris from human brains was prepared and it was observed that the cholesterol/protein ratio, as well as the protein composition between mouse myelin debris and human myelin debris, were very similar.

[4] = tested on: ABCA1; experiment: ABCA1 protein content in human myelin debris-treated HMC3 cells; type: cell-based; conditions: HMC3, human myelin debris 25 μg/mL cholesterol, 0.5 μM, 24 hours
Description: […]. Afterward, cells were harvested for western blot analyses. Lysates of HEK293 cells and lysates of HMC3 cells treated with 10 μM LXR agonist T0901317 for 24 hours were respectively used as negative and positive controls for ABCA1 signals. […] Data are expressed as mean±SEM.
Subsequently, myelin debris from human brains was prepared and it was observed that the cholesterol/protein ratio, as well as the protein composition between mouse myelin debris and human myelin debris, were very similar. […]

[5] = biological target: T2, ACAT2 (Homo sapiens (Human), UniProt O75908); conditions: cited from earlier work
[6] = mice, orally administered; cited from earlier work
[7] = in vivo; cited from earlier work
[8] = tested on: primary cortical neurons; experiment: Lactate dehydrogenase (LDH) toxicity assay
Description: Cells were incubated in enriched neurobasal (NB) medium (Thermo Fisher Scientific, Waltham, MA) (500 mL NB media, 200 mM L-glutamine, B-27 with vitamin A, 1 mL penicillin-streptomycin (1%), and 340 mg glucose). Neurons were allowed to grow processes for 4-6 days prior to treatment.
Lactate Dehydrogenase (LDH) Toxicity Assay. Primary cortical neurons were harvested and maintained as described above. […] After treatment, the conditioned media from the cells were collected, spun at 12,000 rpm for 30 minutes to remove cellular debris, supernatant transferred to new tube, and frozen at −80° C. until time of assay. Using Cytotoxicity Detection Kit (LDH) (Roche), media and reaction mixture were mixed, incubated for 30 minutes at room temperature protected from light, and the absorbance was measured at 490 nm.

[9] = tested on: N9 microglial cells; experiment: inflammatory responses to LPS in N9 microglial cells (qPCR, IκB-α western blot); type: cell-based, mouse; conditions: 0.5 μM for 4 hours, then LPS 10-1000 ng/mL
Description: Six hours later, mRNA was extracted, and qPCR was performed to monitor pro-inflammatory (FIG. 4A) or anti-inflammatory (FIG. 4B) gene expression. […] Thirty minutes later, proteins were extracted for western blot analysis for total IκB-α, and for phosphorylated […]<0.01.

[10] = tested on: IL-4Rα; experiment: IL-4Rα expression in N9 microglial cells (immunoblot)
Description: Cells were harvested for immunoblot analysis for IL-4Rα. Vinculin was the loading control. Data expressed as mean+/− SEM, * p<0.05, ** p<0.01.
IL-4Rα expression was determined by convention methods. 25 μg/mL cholesterol equals 38 μg/mL total myelin debris protein. Data are expressed as mean±SEM. *P<0.05; **P<0.01.

[11] = tested on: amyloidopathy; conditions: in vivo; cited from earlier work
[12] = biological target: T1, ACAT1; conditions: cited from earlier work
[13] = biological target: T2, ACAT2; conditions: cited from earlier work; remark: listed apart in the source
[14] = biological target: mouse ACAT1 (Mus musculus (Mouse), UniProt Q61263); experiment: ACAT1 protein by western blot in microRNA-transfected NIH-3T3 mouse fibroblasts; type: cell-based; conditions: for Relative Intensity (ACAT1 normalized to GAPDH): NIH-3T3, GFP-positive cells, 48 hours post-transfection; for reduction in ACAT1 protein content: mouse 3T3 fibroblasts, cDNA transfection
Description: NIH-3T3 mouse fibroblasts were transiently transfected with one of several rAAV vectors encoding EmGFP and microRNA (miR) #52, #53, #54 or #55. Forty-eight hours post-transfection, GFP-positive cells were harvested by FACS. GFP-positive cells were washed then lysed in 10% SDS and syringe homogenized. Twenty microgram of protein per sample was subjected to SDS-PAGE. After western blot analysis, bands were quantified with ImageJ. ACAT1 intensity was normalized to GAPDH as a loading control and expressed as relative intensity.
Four different siRNA molecules (#52-#55; Table 3) targeting the mouse Acat1 gene were inserted into an endogenous mouse microRNA (miR) scaffold using Invitrogen's RNAi design tool. The artificial miRs were ligated into the mammalian expression vector pcDNA6.2-GW/EmGFP-miR. […] The miRs were delivered to the cells using a standard cDNA transfection protocol.

T1 sequence (P35610 whole entry): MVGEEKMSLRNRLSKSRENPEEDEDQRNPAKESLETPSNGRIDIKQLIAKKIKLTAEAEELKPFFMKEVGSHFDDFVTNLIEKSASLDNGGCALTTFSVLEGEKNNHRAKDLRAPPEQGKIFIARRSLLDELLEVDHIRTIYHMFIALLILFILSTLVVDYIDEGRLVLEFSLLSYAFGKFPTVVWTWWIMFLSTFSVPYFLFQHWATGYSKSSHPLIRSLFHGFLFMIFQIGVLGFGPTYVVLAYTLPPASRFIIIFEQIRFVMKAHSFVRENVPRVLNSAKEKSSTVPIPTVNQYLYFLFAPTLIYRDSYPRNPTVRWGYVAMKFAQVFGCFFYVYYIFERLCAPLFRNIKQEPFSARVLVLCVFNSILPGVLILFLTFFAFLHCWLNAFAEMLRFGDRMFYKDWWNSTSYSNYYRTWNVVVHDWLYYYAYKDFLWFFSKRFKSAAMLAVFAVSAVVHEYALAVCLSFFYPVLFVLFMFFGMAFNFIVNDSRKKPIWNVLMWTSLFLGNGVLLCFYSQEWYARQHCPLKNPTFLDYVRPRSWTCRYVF
T2 sequence (O75908 whole entry): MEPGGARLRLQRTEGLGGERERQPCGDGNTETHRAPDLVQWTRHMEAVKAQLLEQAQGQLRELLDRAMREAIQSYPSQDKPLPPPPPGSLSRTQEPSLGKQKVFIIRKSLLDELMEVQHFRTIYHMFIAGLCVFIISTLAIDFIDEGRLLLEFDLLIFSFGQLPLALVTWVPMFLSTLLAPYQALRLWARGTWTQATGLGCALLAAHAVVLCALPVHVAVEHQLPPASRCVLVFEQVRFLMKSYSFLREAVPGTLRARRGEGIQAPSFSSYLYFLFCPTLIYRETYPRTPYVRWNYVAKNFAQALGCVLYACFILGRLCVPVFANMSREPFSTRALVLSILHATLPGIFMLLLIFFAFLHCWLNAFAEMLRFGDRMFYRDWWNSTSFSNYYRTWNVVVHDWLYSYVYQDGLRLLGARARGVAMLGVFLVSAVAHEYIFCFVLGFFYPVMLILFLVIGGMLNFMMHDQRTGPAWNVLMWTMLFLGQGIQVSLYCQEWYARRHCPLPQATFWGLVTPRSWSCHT

CCCCCCCCCCCCS(=O)(=O)[C@](F)(C(=O)Nc1cc(C)c(O)c(C)c1C)c1ccccc1 [Analog F26]
brain permeability [1]: brain permeable
pIC50 [2]: 7.89
potency relative to F12511 [2]: ~3 times

CCCCCCCCCCCCS[C@H](C(=O)Nc1cc(C)c(O)c(C)c1C)c1ccccc1 [Analog F12511]
brain permeability [1]: permeable to the brain
IL-4Rα protein content [3]: IL-4Rα protein content increases
ABCA1 protein content [4]: increased significantly
pKi [5]: 6.96
half-life in the blood [6]: 1 to 2 h
clinical safety [7]: passed phase I clinical safety tests
cellular toxicity (LDH leakage) ([8]; 24 hours, 2 μM to 100 μM): minimal, if any, toxicity
cellular toxicity (LDH leakage) ([8]; 48 hours, very high concentrations (near 100 μM)): slight increase in toxicity
cellular toxicity (LDH leakage) ([8]; 72 hours, 10 μM): only very minimal toxicity
cellular toxicity (LDH leakage) ([8]; 72 hours, high concentration (near 100 μM)): more toxicity was detected

CSc1cc(C)nc(SC)c1NC(=O)CN1CCN(CCSc2nc3ccccc3[nH]2)CC1 [Analog K-604, 2-[4-[2-(benzimidazol-2-ylthio)ethyl]piperazin-1yl]-N-[2,4-bis(methylthio)-6-methyl-3-pyridyl]acetamide]
inflammatory responses to LPS [9]: attenuates inflammatory responses to LPS
enhancing effect on IL4R-α with myelin debris ([3]; HMC3 cells, mouse myelin debris, 21 hours): more robust
IL-4Rα protein content [3]: IL-4Rα protein content increases
ABCA1 protein content [4]: increased significantly
clinical safety [7]: passed phase I clinical safety tests
expression of the receptor IL-4Rα ([10]; 0.5 μM for 4 or 12 hours): increases expression of the receptor IL-4Rα
enhancing effect on IL4R-α with myelin debris ([10]; mouse myelin debris, 21 hours): more robust

CC(C)c1cc(C(C)C)c(CC(=O)NS(=O)(=O)Oc2c(C(C)C)cccc2C(C)C)c(C(C)C)c1 [CI 1011]
amyloidopathy in a mouse model for AD [11]: reduce amyloidopathy

CCCCCCCC[C@H](SCCCCCC)C(=O)Nc1c(SC)cc(C)nc1SC [CP113,818]
amyloidopathy in a mouse model for AD [11]: reduce amyloidopathy and rescue cognitive deficits

CCOC(=O)OC(=O)OCC [diethyl pyrocarbonate]
fold lower IC50 / greater activity for ACAT1 than for ACAT2 [12]: 4 fold

COc1ccc([C@@H](O)[C@@H](C)Oc2ccc([C@H]3O[C@H](c4ccc(O[C@H](C)[C@H](O)c5ccc6c(c5)OCO6)c(OC)c4)[C@H](C)[C@H]3C)cc2OC)cc1OC [manassantin B]
inhibition of hACAT-2 ([13]; at 1 mM): 32%

miR #52: artificial microRNA targeting mouse ACAT1 sequence GGAGCTGAAGCCACTATTTAT (SEQ ID NO:1) (expressed or natural sequence; the letters are possibly those of the target site)
Relative Intensity (ACAT1 normalized to GAPDH) [14]: 0.77

miR #53: artificial microRNA targeting mouse ACAT1 sequence CTGTTTGAAGTGGACCACATCA (SEQ ID NO:2) (expressed or natural sequence; the letters are possibly those of the target site)
Relative Intensity (ACAT1 normalized to GAPDH) [14]: 0.56

miR #54: artificial microRNA targeting mouse ACAT1 sequence CCCGGTTCATTCTGATACTGGA (SEQ ID NO:3) (expressed or natural sequence; target site or template, no part of the molecule)
Relative Intensity (ACAT1 normalized to GAPDH) [14]: 0.54
reduction in ACAT1 protein content [14]: 50-60%

miR #55: artificial microRNA targeting mouse ACAT1 sequence AACTACCCAAGGACTCCTACTGTA (SEQ ID NO:4) (expressed or natural sequence; the letters are possibly those of the target site)
Relative Intensity (ACAT1 normalized to GAPDH) [14]: 0.39
reduction in ACAT1 protein content [14]: 50-60%

miR Negative Control: negative control miR (SEQ ID NO:9) which does not match any known vertebrate gene (TACTGCGCGTGGAGACG)
Relative Intensity (ACAT1 normalized to GAPDH) [14]: 1.02

saucerneol B
pIC50 ([13]; Lee et al. 2004, read-out: IC50 hACAT-2): 3.91
